Experimental data: US10865216B2, “Tricyclic Gyrase inhibitors” (MERCK SHARP & DOHME CORP., priority 2012, dated 2020)
Values after ≈ are worked out from the molar mass of the structure shown.

The molecules below were run on S. aureus ATCC 13709 (assay: MIC, S. aureus ATCC 13709). Conditions: Staphylococcus aureus, ATCC13709, S. aureus; Alamar Blue read after overnight incubation at 35° C.; read-out: MIC Sa.
Format: cell-based

SMILES | MIC [µg/mL]
CNc1cccc2c1[nH]c1nc(Oc3cncc(C#N)c3)cc(N3CCC4(CC4N)C3)c12 (centres unmarked) [Compound 3.40] | ≤ 0.5
CNc1cccc2c1[nH]c1nc(Sc3cnc4cccnc4c3)nc(N3C[C@H](N)C[C@H]3C)c12 [Compound 1.61] | 8 (≈ 17.5 µM)
CNc1cc(F)cc2c1[nH]c1nc(Oc3cnc(CF)nc3)nc(N3C[C@H]4CC3C[C@H]4N)c12 [Compound 4.443] | ≤ 0.5
CNc1cc(F)cc2c1[nH]c1nc(Oc3cnc(CCO)nc3)nc(N3CC4C[C@@H](N)C4C3)c12 (some centres unmarked) [Compound 4.429] | ≤ 0.5
CNc1cc(F)cc2c1[nH]c1nc(Oc3cnc(C)nc3)nc(-c3cccc(CN)c3F)c12 [Compound 4.447] | 4 (≈ 8.94 µM)
CNc1cccc2c1[nH]c1nc(Oc3ccc[n+]([O-])c3)cc(N3CC4C(N)C4C3)c12 (centres unmarked) [Compound 3.30] | 16 (≈ 39.8 µM)
CNc1cc(F)cc2c1[nH]c1nc(Oc3cnc(C(C)(C)N)nc3)nc(N3C[C@H]4CC3C[C@H]4N)c12 [Compound 4.442] | 1 (≈ 2.09 µM)
CNc1cccc2c1[nH]c1nc(Sc3cnc4ccc[n+]([O-])c4c3)nc(N3CC(N)C4(CC4)C3)c12 (centres unmarked) [Compound 1.40] | ≤ 0.5
CNc1cccc2c1[nH]c1nc(Sc3cnc4cccnc4c3)nc(N3C[C@H](N)C[C@@H]3CO)c12 [Compound 1.68] | 16 (≈ 33.9 µM)
CNc1cccc2c1[nH]c1nc(Oc3cncc(C(N)=O)c3)cc(N3CC4C(N)C4C3)c12 (centres unmarked) [Compound 3.19] | 8 (≈ 18.6 µM)
CNc1cccc2c1[nH]c1nc(Sc3cnc4cccnc4c3)nc(N3CCC(CO)C3)c12 (centres unmarked) [Compound 1.53] | ≤ 0.5

Same assay, conditions: Staphylococcus aureus, ATCC13709, Table 15; R2 is joined to R4; read-out: SA MIC

SMILES | MIC [µg/mL]
CNc1cc(F)cc2c1[nH]c1nc3nc(c12)NCCCCCCNC(=O)CSc1ncc(cn1)O3 | ≤ 0.5

Same assay, conditions: Staphylococcus aureus, ATCC13709, Table 16; new R4 substituents; read-out: SA MIC

SMILES | MIC [µg/mL]
CNc1cc(F)cc2c1[nH]c1nc(Oc3cnc(C)nc3)nc(N3CCCC3=O)c12 | 1 (≈ 2.45 µM)

Same assay, conditions: Table 11; compounds wherein L = CH2

SMILES | SA MIC [µg/mL]
CNc1cc(F)cc2c1[nH]c1nc(Cc3cnc(C)nc3)nc(N3CC4C(N)C4C3)c12 (centres unmarked) [drawing 1736] | ≤ 0.5

Same assay, conditions: Table 12; Z is C and connected to R4

SMILES | SA MIC [µg/mL]
CNc1cc(F)c2c3c1[nH]c1nc(Oc4cnc(C)nc4)nc(c13)N1CCC[C@H]1CNC2 | 16

Same assay, conditions: Table 13; L = NH

SMILES | SA MIC [µg/mL]
CNc1cc(F)cc2c1[nH]c1nc(Nc3cccnc3)nc(N3C[C@H]4CC3C[C@H]4N)c12 | ≤ 0.5
CNc1cc(F)cc2c1[nH]c1nc(Nc3cnc(C)nc3)nc(N3C[C@H]4CC3C[C@H]4N)c12 | ≤ 0.5
CNc1cc(F)cc2c1[nH]c1nc(Nc3cnc4ccnn4c3)nc(N3C[C@H]4CC3C[C@H]4N)c12 | ≤ 0.5

Same assay, conditions: Table 18, Sa

SMILES | MIC Sa [µg/mL]
CCOC(=O)c1csc(Nc2nc(N3C[C@H]4C[C@@H]3C[C@H]4N)c3c(n2)[nH]c2c(NC)cc(F)cc23)n1 [Compound 10.42] | ≤ 0.5
CCc1cc(F)cc2c1[nH]c1nc(Oc3cnc(C)nc3)nc(N3C[C@H]4C[C@@H]3C[C@H]4N)c12 [Compound 10.89] | ≤ 0.5
CNc1cc(F)cc2c1[nH]c1nc(Oc3cnc4c(F)cnn4c3)nc(N3C[C@H]4C[C@@H]3C[C@H]4N)c12 [Compound 10.35] | ≤ 0.5
CNc1cc(F)c(Cl)c2c1[nH]c1nc(Oc3cnc4ccnn4c3)nc(N3C[C@H]4C[C@@H]3C[C@H]4N)c12 [Compound 10.85] | ≤ 0.5
CNc1cc(F)cc2c1[nH]c1nc(Oc3cnc(C(C)O)c(Cl)c3)nc(N3C[C@H]4C[C@@H]3C[C@H]4N)c12 (some centres unmarked) [Compound 10.15] | ≤ 0.5
CNc1cc(F)cc2c1[nH]c1nc(Oc3cnc4c(c3)C(=O)N(C)C4C)nc(N3CC4(CC[C@H]4N)C3)c12 (some centres unmarked) [Compound 10.83] | ≤ 0.5
CNc1cc(F)cc2c1[nH]c1nc(Oc3cnc(/C(C)=N/OC)nc3)nc(N3C[C@H]4C[C@@H]3C[C@H]4N)c12 [Compound 10.27] | ≤ 0.5
CNc1cc(F)cc2c1[nH]c1nc(Oc3cnc4c(C(C)O)cnn4c3)nc(N3C[C@H]4C[C@@H]3C[C@H]4N)c12 (some centres unmarked) [Compound 10.55] | ≤ 0.5
CNc1cc(F)cc2c1[nH]c1nc(Oc3cnc4cc[s+]([O-])c4c3)nc(N3CC4(CC[C@H]4N)C3)c12 (some centres unmarked) [Compound 10.111] | ≤ 0.5
CNc1cc(F)cc2c1[nH]c1nc(Oc3cnc4cc(C5CC5)nn4c3)nc(N3C[C@H]4C[C@@H]3C[C@H]4N)c12 [Compound 10.36] | ≤ 0.5

The molecules below were run on E. coli ATCC 25922 (assay: MIC, E. coli ATCC 25922). Conditions: Escherichia coli, ATCC25922, E. coli; Alamar Blue read after overnight incubation at 35° C.; read-out: MIC Ec.
Format: cell-based

SMILES | MIC [µg/mL]
CNc1cccc2c1[nH]c1nc(Oc3cncc(C#N)c3)cc(N3CCC4(CC4N)C3)c12 (centres unmarked) [Compound 3.40] | 1 (≈ 2.35 µM)
CNc1cccc2c1[nH]c1nc(Sc3cnc4cccnc4c3)nc(N3C[C@H](N)C[C@H]3C)c12 [Compound 1.61] | 64 (≈ 140 µM)
CNc1cc(F)cc2c1[nH]c1nc(Oc3cnc(CF)nc3)nc(N3C[C@H]4CC3C[C@H]4N)c12 [Compound 4.443] | ≤ 0.5
CNc1cc(F)cc2c1[nH]c1nc(Oc3cnc(CCO)nc3)nc(N3CC4C[C@@H](N)C4C3)c12 (some centres unmarked) [Compound 4.429] | 1 (≈ 2.15 µM)
CNc1cc(F)cc2c1[nH]c1nc(Oc3cnc(C)nc3)nc(-c3cccc(CN)c3F)c12 [Compound 4.447] | 16 (≈ 35.8 µM)
CNc1cccc2c1[nH]c1nc(Oc3ccc[n+]([O-])c3)cc(N3CC4C(N)C4C3)c12 (centres unmarked) [Compound 3.30] | 16 (≈ 39.8 µM)
CNc1cc(F)cc2c1[nH]c1nc(Oc3cnc(C(C)(C)N)nc3)nc(N3C[C@H]4CC3C[C@H]4N)c12 [Compound 4.442] | 2 (≈ 4.19 µM)
CNc1cccc2c1[nH]c1nc(Sc3cnc4ccc[n+]([O-])c4c3)nc(N3CC(N)C4(CC4)C3)c12 (centres unmarked) [Compound 1.40] | 1 (≈ 2.06 µM)
CNc1cccc2c1[nH]c1nc(Sc3cnc4cccnc4c3)nc(N3C[C@H](N)C[C@@H]3CO)c12 [Compound 1.68] | 32 (≈ 67.7 µM)
CNc1cccc2c1[nH]c1nc(Oc3cncc(C(N)=O)c3)cc(N3CC4C(N)C4C3)c12 (centres unmarked) [Compound 3.19] | 32 (≈ 74.5 µM)
CNc1cccc2c1[nH]c1nc(Sc3cnc4cccnc4c3)nc(N3CCC(CO)C3)c12 (centres unmarked) [Compound 1.53] | 8 (≈ 17.5 µM)

Same assay, conditions: Escherichia coli, ATCC25922, Table 15; R2 is joined to R4; EC8 not defined; read-out: EC8 MIC

SMILES | MIC [µg/mL]
CNc1cc(F)cc2c1[nH]c1nc3nc(c12)NCCCCCCNC(=O)CSc1ncc(cn1)O3 | > 16

Same assay, conditions: Escherichia coli, ATCC25922, Table 16; new R4 substituents; EC8 not defined; read-out: EC8 MIC

SMILES | MIC [µg/mL]
CNc1cc(F)cc2c1[nH]c1nc(Oc3cnc(C)nc3)nc(N3CCCC3=O)c12 | > 16

Same assay, conditions: Table 11; L = CH2; EC8 not defined

SMILES | EC8 MIC [µg/mL]
CNc1cc(F)cc2c1[nH]c1nc(Cc3cnc(C)nc3)nc(N3CC4C(N)C4C3)c12 (centres unmarked) [drawing 1736] | 0.25

Same assay, conditions: Table 12; Z is C and connected to R4; EC8 not defined

SMILES | EC8 MIC [µg/mL]
CNc1cc(F)c2c3c1[nH]c1nc(Oc4cnc(C)nc4)nc(c13)N1CCC[C@H]1CNC2 | > 16

Same assay, conditions: Table 13; L = NH

SMILES | EC MIC [µg/mL]
CNc1cc(F)cc2c1[nH]c1nc(Nc3cccnc3)nc(N3C[C@H]4CC3C[C@H]4N)c12 | ≤ 0.5
CNc1cc(F)cc2c1[nH]c1nc(Nc3cnc(C)nc3)nc(N3C[C@H]4CC3C[C@H]4N)c12 | ≤ 0.5
CNc1cc(F)cc2c1[nH]c1nc(Nc3cnc4ccnn4c3)nc(N3C[C@H]4CC3C[C@H]4N)c12 | ≤ 0.5

Same assay, conditions: Table 18, Ec

SMILES | MIC Ec [µg/mL]
CCOC(=O)c1csc(Nc2nc(N3C[C@H]4C[C@@H]3C[C@H]4N)c3c(n2)[nH]c2c(NC)cc(F)cc23)n1 [Compound 10.42] | 1 (≈ 2.01 µM)
CCc1cc(F)cc2c1[nH]c1nc(Oc3cnc(C)nc3)nc(N3C[C@H]4C[C@@H]3C[C@H]4N)c12 [Compound 10.89] | 2 (≈ 4.61 µM)
CNc1cc(F)cc2c1[nH]c1nc(Oc3cnc4c(F)cnn4c3)nc(N3C[C@H]4C[C@@H]3C[C@H]4N)c12 [Compound 10.35] | ≤ 0.5
CNc1cc(F)c(Cl)c2c1[nH]c1nc(Oc3cnc4ccnn4c3)nc(N3C[C@H]4C[C@@H]3C[C@H]4N)c12 [Compound 10.85] | ≤ 0.5
CNc1cc(F)cc2c1[nH]c1nc(Oc3cnc(C(C)O)c(Cl)c3)nc(N3C[C@H]4C[C@@H]3C[C@H]4N)c12 (some centres unmarked) [Compound 10.15] | ≤ 0.5
CNc1cc(F)cc2c1[nH]c1nc(Oc3cnc4c(c3)C(=O)N(C)C4C)nc(N3CC4(CC[C@H]4N)C3)c12 (some centres unmarked) [Compound 10.83] | 1 (≈ 1.99 µM)
CNc1cc(F)cc2c1[nH]c1nc(Oc3cnc(/C(C)=N/OC)nc3)nc(N3C[C@H]4C[C@@H]3C[C@H]4N)c12 [Compound 10.27] | ≤ 0.5
CNc1cc(F)cc2c1[nH]c1nc(Oc3cnc4c(C(C)O)cnn4c3)nc(N3C[C@H]4C[C@@H]3C[C@H]4N)c12 (some centres unmarked) [Compound 10.55] | 1 (≈ 1.99 µM)
CNc1cc(F)cc2c1[nH]c1nc(Oc3cnc4cc[s+]([O-])c4c3)nc(N3CC4(CC[C@H]4N)C3)c12 (some centres unmarked) [Compound 10.111] | ≤ 0.5
CNc1cc(F)cc2c1[nH]c1nc(Oc3cnc4cc(C5CC5)nn4c3)nc(N3C[C@H]4C[C@@H]3C[C@H]4N)c12 [Compound 10.36] | ≤ 0.5
